Measured values reported in patent US9877937B2, “Compounds and methods for treating aberrant adrenocortical cell disorders” (Millendo Therapeutics, Inc., priority 2012, dated 2018).
Entries after “also recorded” stand apart in the source; their conditions may differ. Where a name gives a salt, the structure may show the parent alone. Read-outs that look alike come from different tables or passages of the source.

Experiments:
[1] = tested on: xenografts of the human ACC-derived cell line H295R; assay: H295R xenografts in SCID mice, treatment of established tumors (Examples 1 and 2); type: in vivo
Experimental: To investigate the potential therapeutic effect of ATR-101 in a mouse model of adrenocortical carcinoma (ACC), xenografts of the human ACC-derived cell line H295R in SCID mice (6-7 week males) were established. After the xenografts had grown to measurable size, the mice were randomized in two groups. The treatment group was administered 300 mg/kg/day ATR-101 by oral gavage. The control group was administered the vehicle without ATR-101. The tumor size was measured using calipers before and on the indicated days after starting administration of ATR-101.
To determine if the effects of ATR-101 on ACC-derived cell line xenotransplants were reproducible, the experiment using xenotransplants of the same H295R cell line in SCID mice (10-11 week males) were repeated.

[2] = tested on: ACC-derived cell line H295R xenografts; assay: ACC xenograft establishment in SCID mice injected with H295R cells (Example 6); type: in vivo
Experimental: FIG. 7 depicts the effects of ATR-101 administration on ACC xenograft establishment. Randomized cohorts of 10 mice injected with H295R cells were administered 700 mg/kg/day ATR-101 for 4 days followed by 300 mg/kg/day ATR-101 or vehicle by gavage beginning 14 days after cell injection. The sizes of the xenografts were measured three times each week.
(§1) To investigate the potential therapeutic benefit of ATR-101 in the establishment of ACC xenografts in a mouse model of ACC, ACC-derived cell line H295R was injected in SCID mice (6-7 week males). 1×10^8 cells in 0.2 ml DMEM were injected under the skin in the right dorsal flank regions of SCID mice. Two weeks after injection, the mice were randomized in groups of 10. ATR-101 was administered at 700 mg/kg/day for 4 days, followed by 300 mg/kg/day by oral gavage in 10% DMSO, 0.5% CMC, 0.9% NaCl, 0.2% Tween, pH 3. Control mice were administered vehicle. The tumor size was measured using calipers three times a week. Urinary cortisol was measured at various time points after start of ATR-101 or vehicle administration.

[3] = tested on: cortisol produced by H295R cells xenografted into SCID mice; assay: Urinary cortisol levels in mice with H295R xenotransplants (DetectX cortisol assay kit); type: in vivo; settings: 700 then 300 mg/kg/day; from 22 days after cell injection
Experimental: FIG. 8 depicts the urinary cortisol levels in mice with H295R xenotransplants treated with vehicle or ATR-101. Randomized cohorts of 10 mice injected with H295R cells were administered 700 mg/kg/day ATR-101 for 4 days followed by 300 mg/kg/day ATR-101 or vehicle by gavage beginning 14 days after cell injection. Urine was collected on the days indicated beginning at 22 days after cell injection (8 days after the start of ATR-101 or vehicle administration), and the cortisol levels were determined using a DetectX® cortisol assay kit (Arbor Assays).
as §1

[4] = tested on: ACC-derived xenotransplants (H295R); assay: High dose ATR-101 on H295R xenotransplants in SCID mice (Example 7); type: in vivo; settings: 1,000 mg/kg/day oral; 3 mice per group
From the text: The effects of a high dose of ATR-101 on ACC-derived xenotransplants in SCID mice were also studied. Xenografts were produced as previously described with 3 mice in the ATR-101 treated group and 3 mice in the control group.

H295R cells [5] = assay: ATP levels of H295R cells (CellTiter-Glo luminescence); type: cell-based, human
Experimental: (§2) To measure ATP levels and reducing potentials of H295R cells, these cells were cultured in 96-well flat bottom cell culture plates (BD Biosciences) plated at 50,000 cells in 100 μl. The cells were plated in DMEM media without glucose (GIBCO 11966)+10 mM galactose+5 mM sodium-HEPES+2 mM glutamine (addition)+1 mM sodium pyruvate+100 U/ml penicillin/streptomycin+either 0% or 5% fetal calf serum. After overnight (16-20 h) incubation, 20 μl of medium containing 5% fetal calf serum as well as the aliquots of ATR-101 required to produce the final concentrations were added to the cells. To measure ATP levels, 100 μl of the CellTiter-Glo® (Promega Corp., Madison, Wis.) reagent was added to lyse the cells at the indicated times, and luciferin luminescence was measured to determine the amount of ATP in the lysate. To measure reducing activity, PrestoBlue® Cell Viability reagent (Life Technologies Corp.) was added to the cells immediately after ATR-101. The cells were incubated at 37° C. with CO2, and resorufin fluorescence was measured at the times indicated.
To investigate the mechanism whereby ATR-101 kills cells in culture, the effects of cholesterol depletion on the ATP levels of H295R cells cultured in the presence of ATR-101 was investigated. The cells were cultured in the presence of methyl-β-cyclodextrin (MβCD), which can sequester cholesterol and thereby deplete free cholesterol in the cells. […] MβCD increased the concentration of ATR-101 required for half-maximal depletion of ATP levels more than 4-fold.
To determine if the effect of MβCD on ATR-101 cytotoxicity was due to cholesterol depletion, H295R cells were cultured in the presence of the equivalent amount of MβCD complexed with cholesterol (FIG. 12C). […] The protection of H295R cells from the cytotoxicity of ATR-101 by culture in the presence of MβCD was therefore due to cholesterol depletion in these cells.

H295R cells [6] = assay: Reducing activity of H295R cells (resazurin reduction, PrestoBlue); type: cell-based, human
Experimental: as §2
Cellular reducing activity was determined by measuring resazurin reduction using the PrestoBlue® Cell Viability Reagent (Invitrogen). […] Low to moderate concentrations of ATR-101 increased reducing activity, but had little effect on ATP levels. High concentrations of ATR-101 reduced both reducing activity and ATP levels, presumably because of a decrease in cell viability.
To determine if the culture of H295R cells in the presence of MβCD altered ATR-101 entry into cells, the effects of MβCD on ATR-101 induced changes in reducing activity were examined (FIG. 12D-F). Culture in the presence of MβCD alone had little effect on the reducing activity of the cells (FIG. 12E). […] The reduction in reducing activity was likely related to the reduction in ATP levels caused by MβCD complexed with cholesterol.

ACTH-stimulated cortisol = assay: Basal and ACTH-stimulated plasma cortisol levels in dogs; type: in vivo
Experimental: […] 6 dogs/sex/dosage group were studied. […] Plasma cortisol concentrations (ng/ml) in male and female dogs were determined prior to ACTH stimulation and 0.5 and 1 hour after ACTH stimulation.

adrenal gland [7] = assay: Adrenal gland histopathology in dogs; type: in vivo; settings: 300 mg/kg/day for 28 days; day 28; hydrochloride
Experimental: Left and right adrenal glands from dogs treated with a high dose 300 mg/kg/day of ATR-101 for 28 days and control animals were collected at necropsy and fixed in 10% neutral buffered formalin, processed by routine paraffin technique, sectioned longitudinally, and stained with hematoxylin and eosin for routine light microscopy (FIGS. 15A-E).

adrenal gland [8] = assay: Adrenal gland weights in dogs after 28 days; type: in vivo
Experimental: Left and right adrenal glands from male and female dogs treated with various doses of ATR-101 (0 mg/kg/day, 0.3 mg/kg/day, 3 mg/kg/day, or 30 mg/kg/day) for 28 days were collected at necropsy and weighed. Dose-related changes in adrenal gland weights occurred in both sexes (FIGS. 16A and 17A). Absolute and relative (adrenal-to-body (Adrenal:BW (%)) and adrenal-to-brain (Adrenal:BrW) weight ratios) adrenal weights were decreased 14% to 55% in both sexes at ≧3 mg/kg/day (FIGS. 16A-C and 17A-C). After the 4 week recovery period, adrenal weights remained decreased 6% to 11% in males at 3 mg/kg/day and 10% to 32% in both sexes at 30 mg/kg/day. […] Histologic changes in the adrenal glands persisted after the recovery period.

[9] = Tissue distribution of ATR-101 in rats; type: in vivo; settings: for Kp at 7 days: rat, female rats, 100 mg/kg/day for 7 days, N=3
Experimental: (§3) Tissue distribution of ATR-101 in 3 rats and 3 dogs was examined. ATR-101 concentrations were measured in plasma, red blood cells, adrenal gland, liver, kidney, skeletal muscle, ovary, subcutaneous fat, and cerebral spinal fluid. […] ATR-101 concentrations in rats were higher in adrenal gland (˜2×) and ovary (˜1.4×) than in plasma. […] ATR-101 concentrations in dogs were similar in adrenal gland and plasma.

[10] = Tissue distribution of ATR-101 in dogs; type: in vivo
Experimental: as §3

[11] = biological target: complex II of the electron transport chain (Homo sapiens, UniProt O14521+P21912+P31040+Q99643); settings: isolated mitochondria; cited from earlier work
Chain of complex II of the electron transport chain (P31040 43-664): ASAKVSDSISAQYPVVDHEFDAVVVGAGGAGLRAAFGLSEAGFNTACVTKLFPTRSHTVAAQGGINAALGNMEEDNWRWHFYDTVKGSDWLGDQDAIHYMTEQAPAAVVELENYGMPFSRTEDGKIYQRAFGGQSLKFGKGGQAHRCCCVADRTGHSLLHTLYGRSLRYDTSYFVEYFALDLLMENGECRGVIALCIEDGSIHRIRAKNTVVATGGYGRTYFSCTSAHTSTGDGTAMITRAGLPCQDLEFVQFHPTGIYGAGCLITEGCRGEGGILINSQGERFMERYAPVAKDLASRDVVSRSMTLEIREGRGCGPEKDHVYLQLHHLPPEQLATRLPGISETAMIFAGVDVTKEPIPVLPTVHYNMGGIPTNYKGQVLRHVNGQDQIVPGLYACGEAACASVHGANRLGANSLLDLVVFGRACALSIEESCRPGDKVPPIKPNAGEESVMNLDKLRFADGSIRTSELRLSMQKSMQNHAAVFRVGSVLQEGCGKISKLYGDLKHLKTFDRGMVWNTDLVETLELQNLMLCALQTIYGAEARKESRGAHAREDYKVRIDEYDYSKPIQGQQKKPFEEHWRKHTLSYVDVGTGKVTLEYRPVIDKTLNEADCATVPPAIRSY
Chain of complex II of the electron transport chain (P21912 29-280): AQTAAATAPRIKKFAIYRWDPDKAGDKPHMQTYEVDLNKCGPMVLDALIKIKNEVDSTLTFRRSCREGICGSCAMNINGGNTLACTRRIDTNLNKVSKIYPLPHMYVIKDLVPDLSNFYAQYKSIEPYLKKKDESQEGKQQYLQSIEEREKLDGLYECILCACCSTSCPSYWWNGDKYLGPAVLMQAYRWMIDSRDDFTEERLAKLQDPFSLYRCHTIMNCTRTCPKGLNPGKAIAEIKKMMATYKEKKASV
Chain of complex II of the electron transport chain (Q99643 30-169): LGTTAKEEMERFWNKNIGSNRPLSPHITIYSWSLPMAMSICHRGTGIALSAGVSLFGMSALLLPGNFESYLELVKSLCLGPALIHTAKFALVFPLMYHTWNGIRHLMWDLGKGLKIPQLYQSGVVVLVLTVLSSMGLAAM
Chain of complex II of the electron transport chain (O14521 57-159): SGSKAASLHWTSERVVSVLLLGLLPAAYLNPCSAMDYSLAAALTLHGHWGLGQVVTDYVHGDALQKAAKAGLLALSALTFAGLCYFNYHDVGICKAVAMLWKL

[12] = tested on: adrenocortical carcinoma (ACC); settings: cited from earlier work

CC(C)c1cccc(C(C)C)c1NC(=O)NCC1(c2ccc(N(C)C)cc2)CCCC1 [ATR-101, N-(2,6-bis(1-methylethyl)phenyl)-N′-((1-(4-(dimethylamino)phenyl)cyclopentyl)-methyl)urea hydrochloride]
decrease in tumor size ([1]; 300 mg/kg/day oral gavage, 8 days after start, n=3, relative standard deviation 32%, control increased 400%): 50%
time to resumption of tumor growth after change to Formulation II ([1]; 300 mg/kg/day, formulation changed after first week): within two days
body condition score (BCS) ([1]; 300 mg/kg/day, treatment group, control 2.0): 3.0
tumor size versus control group ([1]; 15 days after beginning of administration, p<0.05): significantly smaller
time to resumption of tumor growth after start of administration ([1]; Example 2): within eight days
tumor size ([1]; Example 2, 300 mg/kg/day, six days after start, n=2): decreased to undetectable size
tumor size as fraction of size of tumors in control mice ([1]; Example 2, 13 days after start): one-eighth to one-third
regression of xenograft relative to size before administration ([1]; all mice with tumors smaller than 300 mm^3): less than half of its size
time at which tumors exceeded pre-treatment size ([1]; both experiments): 8 to 15 days
time at which tumors resumed growth after start of administration ([1]; both experiments): 7 to 9 days
time of maximal therapeutic effect after start of administration ([1]; both experiments): 6 to 8 days
post-mortem tumor weight (mean) ([1]; first experiment, surviving treated mice, SD of the mean 0.13 g, control 1.23 g, p<0.05): 0.71 g
total body weight (mean) ([1]; first experiment, treatment group, SD of the mean 1 g, control 19 g): 24 g
effect on tumor growth in mice with large tumors ([1]; two mice with tumors of 300 mm^3 and 900 mm^3): did not halt the tumor growth
body weight versus vehicle ([2]; 700 then 300 mg/kg/day): no significant difference
median time until xenograft formation versus vehicle-treated group ([2]; 700 then 300 mg/kg/day): more than twice as long
survival ([2]; 100 days after injection): All the mice were alive
mice that developed palpable xenografts ([2]; of 10 mice, 700 mg/kg/day 4 days then 300 mg/kg/day by gavage from 14 days after injection, vehicle 7 of 10): 2
xenograft size ([2]; the 2 xenografts, 100 days after injection): < 500 mm^3
average urinary cortisol levels versus vehicle [3]: lower
tumor growth versus vehicle treated controls [4]: significantly reduced tumor growth
reduction of ATP luminescence signal (H295R cells [5]; 64 μM, 4 hours): about 90%
increase by MβCD of ATR-101 concentration required for half-maximal depletion of ATP levels (H295R cells [5]; 2 mM MβCD): more than 4 fold
ATP levels of cells cultured in presence of MβCD (H295R cells [5]; 2 mM MβCD, up to 32 μM ATR-101): unaffected
EC50 (H295R cells [5]; Homo sapiens, NCI-H295R, 4 hours, read-out: concentration with half-maximal effect on ATP luminescence signal): 16 µM
ATP level in cells cultured with MβCD complexed with cholesterol (H295R cells [5]; MβCD (2 mM) complexed with cholesterol): further reduction
reducing activity in cells cultured in presence of MβCD (H295R cells [6]; 2 mM MβCD): larger increase in reducing activity
resazurin fluorescence signal, higher concentrations (H295R cells [6]; ATR-101 concentrations higher than 8 μM): reduced the fluorescence
reducing activity in cells cultured with MβCD complexed with cholesterol (H295R cells [6]; MβCD complexed with cholesterol, in absence and presence of ATR-101): lower reducing activities
resazurin fluorescence signal, low concentrations (H295R cells [6]; up to 8 μM ATR-101): increased the fluorescence signal
cortisol during recovery period (ACTH-stimulated cortisol; days 42 and 56, drug-free recovery): reversal of the cortisol-suppressive effects
ACTH responses (plasma cortisol) (ACTH-stimulated cortisol; male and female dogs, 3 mg/kg/day and 30 mg/kg/day, from day 7 through day 14 and day 28): Marked drug-associated decreases
adrenal gland histopathology findings (adrenal gland [7]): fibrosis; also recorded: vacuolation; also recorded: cortical atrophy
histologic changes in adrenal glands after recovery period (adrenal gland [8]; after 4 week recovery): persisted
histologic changes associated with adrenal weight changes (adrenal gland [8]; both sexes, ≧3 mg/kg/day): adrenal cortical atrophy, fibrosis, and vacuolation
Kp at 7 days ([9]; adrenal gland (relative to plasma), read-out: adrenal gland concentration relative to plasma): ~2
Kp at 7 days ([9]; ovary (relative to plasma), read-out: ovary concentration relative to plasma): ~1.4
blood-brain barrier crossing ([9]; rats): does not appear to cross the blood-brain barrier
level in cerebral spinal fluid (CSF) ([9]; rats, likely contamination of CSF with blood): Low levels
blood-brain barrier crossing ([10]; dogs): does not appear to cross the blood-brain barrier
adrenal gland concentration compared with plasma ([10]; female dogs, 3 mg/kg/day for 7 days, N=3): similar
effect on complex II of the electron transport chain [11]: inhibit

Clc1ccc(C(c2ccccc2Cl)C(Cl)Cl)cc1 (centres unmarked) [mitotane]
proportion of patients with increased progression-free survival ([12]; ACC patients): one-quarter to one-third
elimination half-life ([12]; accumulates in fat tissue): months
average delay of disease progression ([12]; patients that derive a therapeutic benefit): five
blood level required for therapeutic benefit ([12]; patients): 14000 ng/mL
toxic blood level ([12]; patients): 20 mg/L
